Measured values taken from US3943129A, “7-Amino-3-(1,3,4-thiadiazolinylthio-methyl) cephalosporins” (SmithKline Corporation, priority 1974, dated 1976).
Values after ≈ are worked out from the molar mass of the structure shown.

Legend:
[1] = test system: Serrantia marcescens ATCC 13880; assay: Minimum inhibitory concentration (MIC)
Kleb. pneumo. SK 4200 [2] = assay: In vivo ED50 in infected mice, subcutaneous; settings: Mus musculus, sc
E. coli SK 12140 [3] = assay: Minimum inhibitory concentration (MIC); settings: Escherichia coli, SK12140
E. coli HH 33779 = assay: Minimum inhibitory concentration (MIC); settings: Escherichia coli, HH33779
S. aureus SK 23390 = assay: Minimum inhibitory concentration (MIC); settings: Staphylococcus aureus, SK23390
Staph. aurcus villaluz = assay: Minimum inhibitory concentration (MIC)
S. aureus HH 127 = assay: Minimum inhibitory concentration (MIC); settings: Staphylococcus aureus, HH127
Pseudomonas sp. HH 63 = assay: Minimum inhibitory concentration (MIC); settings: SP.HH63
Kleb. pneumo. SK 4200 [4] = assay: Minimum inhibitory concentration (MIC)
Strep. faecalis HH 34358 = assay: Minimum inhibitory concentration (MIC); settings: Enterococcus faecalis, HH34358
Strep. pyog. C203 = assay: Minimum inhibitory concentration (MIC)
[5] = test system: Sal. paratyphi ATCC 12176; assay: Minimum inhibitory concentration (MIC); format: cell-based; settings: Salmonella enterica
[6] = test system: Entero. cloaca Pa.S.L.969; assay: Minimum inhibitory concentration (MIC)
[7] = test system: Entero. aerogenes ATCC13048; assay: Minimum inhibitory concentration (MIC); settings: Klebsiella aerogenes
Kleb. pneumo. SK 1200 = assay: Minimum inhibitory concentration (MIC)
E. coli SK 12140 [8] = assay: In vivo ED50 in infected mice, subcutaneous; settings: Escherichia coli, SK12140, in Mus musculus, sc
Shig. paradys. HH 127 = assay: Minimum inhibitory concentration (MIC)
Stability to copper ion = format: physicochemical; settings: vs tested prior art compounds
Stability in solution = format: physicochemical; settings: neutral or basic pH, vs any prior art compounds that were tested

| SMILES | MIC [1] [µg/mL] | ED50 (Kleb. pneumo. SK 4200 [2]) [mg/kg] | MIC (E. coli SK 12140 [3]) [µg/mL] | MIC (E. coli HH 33779) [µg/mL] | MIC (S. aureus SK 23390) [µg/mL] | MIC (Staph. aurcus villaluz) [µg/mL] | MIC (S. aureus HH 127) [µg/mL] | MIC (Pseudomonas sp. HH 63) [µg/mL] | MIC (Kleb. pneumo. SK 4200 [4]) [µg/mL] | MIC (Strep. faecalis HH 34358) [µg/mL] | MIC (Strep. pyog. C203) [µg/mL] | MIC [5] [µg/mL] | MIC [6] [µg/mL] | MIC [7] [µg/mL] | MIC (Kleb. pneumo. SK 1200) [µg/mL] | ED50 (E. coli SK 12140 [8]) [mg/kg] | MIC (Shig. paradys. HH 127) [µg/mL] | stability to copper ion (Stability to copper ion) | stability in solution (Stability in solution) |
| --- | --- | --- | --- | --- | --- | --- | --- | --- | --- | --- | --- | --- | --- | --- | --- | --- | --- | --- | --- |
| CCn1c(SCC2=C(C(=O)O)N3C(=O)C(NC(=O)C(N)c4ccccc4)C3SC2)n[nH]c1=O (stereo not drawn) [III] | 200 (≈ 408 µM) | 92 | 12.5 (≈ 25.5 µM) | 12.5 (≈ 25.5 µM) | 3.1 (≈ 6.32 µM) | 25 (≈ 51 µM) | 3.1 (≈ 6.32 µM) | > 200 | 6.3 (≈ 12.8 µM) | 25 (≈ 51 µM) | 0.1 (≈ 0.204 µM) | 3.1 (≈ 6.32 µM) | 25 (≈ 51 µM) | 25 (≈ 51 µM) | 6.3 (≈ 12.8 µM) | 29 |  |  |  |
| O=C(Cc1cccs1)N[C@@H]1C(=O)N2C(C(=O)[O-])=C(C[n+]3ccccc3)CS[C@H]12 [S-I, cephaloridine, reference compound] | > 200 | 7.6 | 3.1 (≈ 7.46 µM) | 6.3 (≈ 15.2 µM) | 0.1 (≈ 0.241 µM) | 12.5 (≈ 30.1 µM) | 0.4 (≈ 0.963 µM) | > 200 | 3.1 (≈ 7.46 µM) | 6.3 (≈ 15.2 µM) | 0.1 (≈ 0.241 µM) | 1.6 (≈ 3.85 µM) | > 200 | > 200 | 3.1 (≈ 7.46 µM) | 6 | 1.6 (≈ 3.85 µM) |  |  |
| Cn1c(SCC2=C(C(=O)O)N3C(=O)C(NC(=O)C(O)c4ccccc4)C3SC2)n[nH]c1=O (stereo not drawn) [VI] | > 200 | 21 | 6.3 (≈ 13.2 µM) | 12.5 (≈ 26.2 µM) | 0.4 (≈ 0.838 µM) | 12.5 (≈ 26.2 µM) | 1.6 (≈ 3.35 µM) | > 200 |  | 25 (≈ 52.4 µM) | 0.1 (≈ 0.209 µM) | 3.1 (≈ 6.49 µM) |  | 12.5 (≈ 26.2 µM) | 3.1 (≈ 6.49 µM) | 9 |  |  |  |
| CC1=C(C(=O)O)N2C(=O)[C@@H](NC(=O)[C@H](N)c3ccccc3)[C@H]2SC1 [S-II, cephalexin, reference compound] | 50 (≈ 144 µM) | 25 | 6.3 (≈ 18.1 µM) | 6.3 (≈ 18.1 µM) | 1.6 (≈ 4.61 µM) | 50 (≈ 144 µM) | 3.1 (≈ 8.92 µM) | > 200 | 6.3 (≈ 18.1 µM) | 50 (≈ 144 µM) | 0.1 (≈ 0.288 µM) | 3.1 (≈ 8.92 µM) | 6.3 (≈ 18.1 µM) | 12.5 (≈ 36 µM) | 3.1 (≈ 8.92 µM) | 12 |  |  |  |
| NC(C(=O)NC1C(=O)N2C(C(=O)O)=C(CSc3n[nH]c(=O)[nH]3)CSC12)c1ccccc1 (stereo not drawn) [Compound I] | 200 (≈ 432 µM) | 7 | 3.1 (≈ 6.7 µM) | 6.3 (≈ 13.6 µM) | 1.6 (≈ 3.46 µM) | 12.5 (≈ 27 µM) | 1.6 (≈ 3.46 µM) | > 200 | 3.1 (≈ 6.7 µM) | 50 (≈ 108 µM) | 0.1 (≈ 0.216 µM) | 1.6 (≈ 3.46 µM) | 12.5 (≈ 27 µM) | 6.3 (≈ 13.6 µM) | 3.1 (≈ 6.7 µM) | 2.9 |  | greater stability to copper ion than tested prior art compounds | more stable in solution at neutral or basic pH than any prior art compounds that were tested |
